# In patent US9273338B2, “Chimeric avian-based screening system containing mammalian grafts” (priority 2004, dated 2016):
# B1: LT: lymphotoxin (LT) (protein, UniProt P01374 35-205, looked up)
# Lymphotoxin-alpha: LPGVGLTPSAAQTARQHPKMHLAHSTLKPAAHLIGDPSKQNSLLWRANTDRAFLQDGFSLSNNSLLVPTSGIYFVYSQVVFSGKAYSPKATSSPLYLAHEVQLFSSQYPFHVPLLSSQKMVYPGLQEPWLHSMYHGAAFQLTQGDQLSTHTDGIPHLVLSPSTVFFGAFAL
# Columns and labels:
# [1] = system: Langerhans cells (LC) in human skin explants cultivated on the CAM; assay: Activation and mobilization of Langerhans cells in human skin grafts on the CAM (CD1a staining); format: in vivo
# Experimental: Excess fat was manually removed from human skin obtained within 2 hours of surgery. The skin was cut into rectangular/square pieces approximately 7-10 mm on each side and stored on a cold plate at 15° C. in saline. Eggs with an artificial air sac were opened with iris scissors in a sterile hood. The ectodermal surface of the CAM was abraded by touching it briefly with a sterile piece of lens tissue to improve the adherence of the graft. The skin was then gently place on the CAM and stretched out. The eggs were then sealed with scotch tape, and returned to the incubator.
# Two-three days after grafting the skin, the eggs were re-opened, and the grafts are evaluated visually for viability. Eggs containing skin that has yellowed or that looks obviously infected were discarded. A plastic ring just smaller than the skin was placed on the graft in order to prevent leakage of the test substance away from the skin, using Vaseline to seal it down. Then, a 50 μl drop of the tested substance was placed on the skin, and the egg was re-sealed and incubated for another 6 hours-5 days. At the end of the re-incubation, the skin was removed from the CAM and prepared for paraffin histology. […]
# All the microscopic 400 μm-fields in triplicate sections from each skin sample were counted with a 40× objective. The average number of cells per field was then determined and averaged for that skin sample. […]
# [2] = system: human skin grafted onto the CAM of a fertilized egg; assay: Human skin irritation quantified with the skin-CAM system; format: in vivo
# Experimental: FIGS. 2B and 2C quantitate the change in epidermal thickness of CAM-grafted and organ culture-maintained human skin. Epidermal thickness was measured using digital photos, by tracing the epidermis with a digitizing pad and determining area using the public domain scientific imaging software ImageJ (http://rsb.info.nih.gov/ij/). Size bars represent 0.05 mm
# Punch biopsies of human skin were grafted onto the CAM of a fertilized egg as described in Example 1. The human skin samples were allowed to incubate for 2 days after grafting in order to allow for the skin to incorporate, and then the adhesive tape sealing of the samples was reopened. The detergent sodium dodecylsulfate (SDS) was applied to different skin samples at different concentrations topically using a small plastic ring cut from a pipette tip keep the irritant in place. The skin samples were then resealed and returned to the incubator for an addition three days, whereupon they underwent routine histological and immunochemical analysis using Abs for the proliferation marker PCNA. PCNA^+ cells were counted in several sections, and the length of the epidermis in the section measured. Results are expressed as PCNA^+ cells/mm.
molecule,measurement,setting,value
"O=[N+]([O-])c1ccc(F)c([N+](=O)[O-])c1 [DNFB, dinitrofluorobenzene]",CD1a+ LC in the epidermis,"[1]; overnight (O/N) incubation, compared to untreated skin fixed immediately or O/N acetone/olive oil (solvent) treated skin, FIG. 9",significant decrease
"CCCCCCCCCCCCOS(=O)(=O)[O-].[Na+] [SDS, sodium dodecylsulfate]",epidermal thickness,"[2]; topical SDS treatment, FIG. 3B",no significant differences in epidermal thickness
same,epidermal proliferation (PCNA+ cells/mm),"[2]; topical SDS, 1% and 2.5% produce similar results, 3 days after treatment, p<0.05, FIG. 3A",significantly increases epidermal proliferation
B1,number of CD1a+ LC in epidermis,"[1]; LT-treated skin grafts, FIG. 10",clear decrease
